Test results from patent publication US20260355199A1, “COMPOSITIONS AND METHODS FOR TREATING OR PREVENTING NONALCOHOLIC STEATOHEPATITIS (NASH), ANOREXIA, DEPRESSION, ENDOMETRIOSIS, AND OTHER DISEASES OR DISORDERS” (priority 2022, published 2026).
Entries after “also recorded” stand apart in the source; their conditions may differ.

Columns and labels:
AGRP in the ARC = experiment: AGRP expression and feeding of chow-fed mice given Bobcat339 in drinking water; type: in vivo, mouse
Text: It has previously been shown that TET3 expression is aberrantly elevated in the livers of humans and mice with type 2 diabetes and that liver-specific, siRNA-mediated TET3 knockdown improves glucose homeostasis both in dietary and genetic mouse models of diabetes (Li D. et al., 2020, Nature Communications, 11:342). Bobcat339 (4-Amino-1-[1,1′-biphenyl]-3-yl-5-chloro-2(1H)-pyrimidinone) is a synthetic cytosine derivative capable of binding competitively with 5mC to the active sites of [COMPOUND LEFT OUT] and inhibits their enzymatic activity in cultured neuronal cells (Chua G. N. L. et al., 2019, ACS Medicinal Chemistry Letters, 10:180-185). Although not bound by any particular theory, it was hypothesized that Bobcat339 has an anti-diabetic effect owing to its ability to inhibit [COMPOUND LEFT OUT]. Thus, the present studies employed high fat diet (HFD)-induced diabetic mice that were treated with Bobcat339 in drinking water for two weeks. […] Thus, nondiabetic mice fed on regular chow were treated with Bobcat339 in drinking water. Four days later, ARCs were isolated from ad libitum-fed mice and analyzed. […]
Immunofluorescence Postfixed sections were cut into 40 μm-thick sections. […] The sections were coverslipped and visualized using a Keyence BZ-X700 fluorescence microscope. The fluorescence signals from GFP and mCherry in AgRP neurons were detected without immunostaining. […]

TET1 = conditions: cited from earlier work
TET3 = TET3 protein in mouse peritoneal macrophages; type: cell-based; conditions: 10 μM
Method: For cultured mouse peritoneal macrophages, cells were primed with 30 ng/ml of TGF-β1 (R&D Systems, 7666-MB0-005) for 48 h (to increase TET3 expression) before Bobcat339 treatment. Bobcat339 (or DMSO) was added at a final concentration of 10 μM, followed by RNA and protein extraction at time points indicated in the figure legends.
Cells were homogenized in situ using a pipette tip in 2×SDS-sample buffer with 10% β-mercaptoethanol at RT followed by heating at 100 °C for 5 min with occasional vortexing. The samples were loaded onto a 4-15% gradient SDS gel (Bio-rad, 456-8086) (10 μL/well) and transferred to nitrocellulose membranes, followed by Western blot analysis. The antibodies used were anti-TET3 (diluted at 1:1000, GeneTex, GTX121453 for human; diluted at 1:1000, Active Motif, 61395 for mouse), anti-TET2 (diluted at 1:1000, Proteintech, 21207-1-AP for human/mouse), anti-TGF-β1 (diluted at 1:1000, Abcam, ab215715 for human), anti-Lin28A (diluted at 1:1000, Cell Signaling, 3978S), and HRP-conjugated anti-GAPDH (dilution 1:5000; Proteintech, HRP-60004). The secondary antibody was HRP-linked Anti-rabbit IgG (dilution 1:10,000; Rockland, 611-1322).

Nc1nc(=O)n(-c2cccc(-c3ccccc3)c2)cc1Cl [Bobcat339, 4-Amino-1-[1,1′-biphenyl]-3-yl-5-chloro-2(1H)-pyrimidinone]
AGRP expression in the ARC (AGRP in the ARC; Bobcat339 100 mg/kg per day in drinking water, 4 days, 100 mg/kg/day): increased AGRP expression in the ARC; also recorded: increased AGRP peptide; also recorded: increased AGRP production
feeding (AGRP in the ARC; mice exposed to Bobcat339): induced hyperphagia
inhibitory activity against TET1 (TET1; in the absence of contaminating copper (II)): negligible inhibitory activity
inhibition of enzymatic activity of TET1 (TET1; initially reported): inhibit the enzymatic activity
TET3 protein (TET3): downregulated
